Laboratory results reported in ChEMBL document CHEMBL4699535, “Dolabellane and Clerodane Diterpenoids from the Twigs and Leaves of Casearia kurzii” (J Nat Prod, 2020).

Legend:
A549 [1] = assay: Antiproliferative activity against human A549 cells assessed as reduction in cell viability after 24 to 72 hrs by MTT assay; assay type: functional, cell-based
[2] = target: NAD(P)H dehydrogenase [quinone] 1 (Mus musculus) (UniProt Q64669); assay: Induction of quinone reductase in mouse Hepa1c1c7 cells at 100 uM incubated for 24 hrs by MTT based assay; assay type: cell-based; settings: filed as activator
A549 [3] = assay: Induction of cell cycle arrest in human A549 cells assessed as accumulation at S phase at 5 uM after 24 hrs by propodium iodide staining based flow cytometric analysis (reference value: 23.42 to 28.6%); assay type: functional
A549 [4] = assay: Induction of cell cycle arrest in human A549 cells assessed as accumulation at G2/M phase at 5 uM after 24 hrs by propodium iodide staining based flow cytometric analysis (reference value: 10.66 to 10.98%); assay type: functional
A549 [5] = assay: Induction of apoptosis in human A549 cells assessed as early apoptotic cells at 20 uM after 24 hrs by Annexin-V FITC/PI staining based flow cytometry analysis (reference value: 3.97 to 4.33%); assay type: functional
A549 [6] = assay: Induction of apoptosis in human A549 cells assessed as late apoptotic cells at 20 uM after 24 hrs by Annexin-V FITC/PI staining based flow cytometry analysis (reference value: 9.6%); assay type: functional
A549 [7] = assay: Induction of cell cycle arrest in human A549 cells assessed as accumulation at G2/M phase at 10 uM after 24 hrs by propodium iodide staining based flow cytometric analysis (reference value: 10.66 to 10.98%); assay type: functional
A549 [8] = assay: Induction of cell cycle arrest in human A549 cells assessed as accumulation at S phase at 10 uM after 24 hrs by propodium iodide staining based flow cytometric analysis (reference value: 23.42 to 28.6%); assay type: functional
A549 [9] = assay: Induction of cell cycle arrest in human A549 cells assessed as accumulation at G0/G1 phase at 20 uM after 24 hrs by propodium iodide staining based flow cytometric analysis (reference value: 60.74 to 65.6%); assay type: functional
A549 [10] = assay: Induction of cell cycle arrest in human A549 cells assessed as accumulation at G2/M phase at 20 uM after 24 hrs by propodium iodide staining based flow cytometric analysis (reference value: 10.66 to 10.98%); assay type: functional
A549 [11] = assay: Induction of cell cycle arrest in human A549 cells assessed as accumulation at S phase at 20 uM after 24 hrs by propodium iodide staining based flow cytometric analysis (reference value: 23.42 to 28.6%); assay type: functional
A549 [12] = assay: Induction of apoptosis in human A549 cells assessed as late apoptotic cells at 10 uM after 24 hrs by Annexin-V FITC/PI staining based flow cytometry analysis (reference value: 9.6%); assay type: functional
A549 [13] = assay: Induction of cell cycle arrest in human A549 cells assessed as accumulation at G0/G1 phase at 10 uM after 24 hrs by propodium iodide staining based flow cytometric analysis (reference value: 60.74 to 65.6%); assay type: functional
A549 [14] = assay: Induction of apoptosis in human A549 cells assessed as early apoptotic cells at 10 uM after 24 hrs by Annexin-V FITC/PI staining based flow cytometry analysis (reference value: 3.97 to 4.33%); assay type: functional
[15] = target: NAD(P)H dehydrogenase [quinone] 1 (Mus musculus) (UniProt Q64669); assay: Induction of quinone reductase in mouse Hepa1c1c7 cells at 50 uM incubated for 24 hrs by MTT based assay; assay type: cell-based; settings: filed as activator
A549 [16] = assay: Induction of cell cycle arrest in human A549 cells assessed as accumulation at G0/G1 phase at 5 uM after 24 hrs by propodium iodide staining based flow cytometric analysis (reference value: 60.74 to 65.6%); assay type: functional
[17] = Homo sapiens, A549, read-out: IC50

NAD(P)H dehydrogenase [quinone] 1 (Mus musculus), sequence (Q64669 whole entry): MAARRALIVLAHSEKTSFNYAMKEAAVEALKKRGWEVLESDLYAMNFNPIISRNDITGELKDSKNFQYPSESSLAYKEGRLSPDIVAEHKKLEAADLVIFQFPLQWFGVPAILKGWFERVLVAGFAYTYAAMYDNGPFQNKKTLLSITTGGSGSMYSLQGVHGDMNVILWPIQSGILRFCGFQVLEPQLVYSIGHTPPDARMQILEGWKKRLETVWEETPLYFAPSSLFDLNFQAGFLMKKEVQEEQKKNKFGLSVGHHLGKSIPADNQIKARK

C/C1=C\CC[C@]2(C)O[C@H]2C[C@@H]2C(=O)C=C(C(C)C)[C@@]2(O)CC1
IC50 (A549 [1]; a549): Not Active
fold change (FC) [2]: 1.5

C=C/C(C)=C/C[C@]1(C)[C@H](C)C[C@H](OC(=O)[C@@H](C)CC)[C@@]23C(=CC(=O)C[C@@H]12)[C@@H](OC(C)=O)O[C@H]3OC(C)=O
IC50 (A549 [1]; a549): Not Active

C/C1=C/C[C@@H]2[C@@](C)(C/C=C(\C)CC[C@@H]1O)CC[C@@]2(O)C(C)C
IC50 (A549 [1]; a549): Not Active
fold change (FC) [2]: 1.5

CC(=O)O[C@H]1O[C@@H](OC(C)=O)[C@]23C1=C[C@H](OC(=O)CC(C)C)C[C@H]2[C@](C)(C/C=C(\C)C=O)[C@H](C)C[C@@H]3O
Activity (A549 [3]): 27.45%
Activity (A549 [4]): 11.09%
Activity (A549 [5]): 13.7%
Activity (A549 [6]): 25.27%
IC50 (A549 [1]; [17]): 4.4 µM
Activity (A549 [7]): 19.14%
Activity (A549 [8]): 23.87%
Activity (A549 [9]): 44.84%
Activity (A549 [10]): 20.56%
Activity (A549 [11]): 34.59%
Activity (A549 [12]): 9.94%
Activity (A549 [13]): 56.99%
Activity (A549 [14]): 6.04%

CC1=CC[C@H](O)[C@@]2(C)CC[C@@H]3[C@](C)(CC[C@@]3(O)C(C)C)C[C@H]12
IC50 (A549 [1]; a549): Not Active
fold change (FC) [15]: 1.4

C=C/C(C)=C/C[C@]1(C)[C@H](C)C[C@H](OC(=O)C(C)C)[C@@]23C(=C[C@H](O)C[C@@H]12)[C@@H](OC(C)=O)O[C@H]3OC(C)=O
IC50 (A549 [1]; a549): Not Active

C=CC(=C)[C@H](O)C[C@]1(C)[C@H](C)C[C@H](O)[C@@]23C(=C[C@H](OC(=O)CC(C)C)C[C@@H]12)[C@@H](OC(C)=O)O[C@H]3OC(C)=O
Activity (A549 [3]): 24.62%
Activity (A549 [4]): 11.21%
Activity (A549 [5]): 10.41%
Activity (A549 [6]): 35.73%
IC50 (A549 [1]; [17]): 4.6 µM
Activity (A549 [7]): 13.21%
Activity (A549 [8]): 31.33%
Activity (A549 [9]): 38.95%
Activity (A549 [10]): 0%
Activity (A549 [11]): 61.05%
Activity (A549 [12]): 10.45%
Activity (A549 [13]): 55.45%
Activity (A549 [14]): 5.44%
Activity (A549 [16]): 64.17%

CC(=O)O[C@H]1O[C@@H](OC(C)=O)[C@]23C1=C[C@H](OC(=O)CC(C)C)C[C@H]2[C@](C)(C/C=C/C=O)[C@H](C)C[C@@H]3O
IC50 (A549 [1]; a549): Not Active

C/C1=C\C[C@@]2(C)CC[C@@](O)(C(C)C)[C@@H]2C/C=C(\C)[C@@H](O)CC1
IC50 (A549 [1]; a549): Not Active
fold change (FC) [2]: 1.5

CC(=O)O[C@H]1O[C@@H](OC(C)=O)[C@]23C1=C[C@H](OC(=O)C(C)C)C[C@H]2[C@](C)(C/C=C(\C)C=O)[C@H](C)C[C@@H]3O
IC50 (A549 [1]; a549): Not Active

C=C1CC[C@@H]2[C@@](C)(C/C=C(\C)CC[C@@H]1O)CC[C@@]2(O)C(C)C
IC50 (A549 [1]; a549): Not Active
fold change (FC) [2]: 1.5

C=C/C(C)=C/C[C@]1(C)[C@H](C)C[C@H](OC(=O)CC(C)C)[C@@]23C(=C[C@H](O)C[C@@H]12)[C@@H](OC(C)=O)O[C@H]3OC(C)=O
IC50 (A549 [1]; a549): Not Active

C/C1=C\CC[C@@]2(C)O[C@@H]2C[C@H]2C(=O)C=C(C(C)C)[C@]2(O)CC1
IC50 (A549 [1]; a549): Not Active
fold change (FC) [2]: 1.9

C=C/C(C)=C/C[C@]1(C)[C@H](C)C[C@H](OC(=O)[C@@H](C)CC)[C@@]23C(=C[C@H](O)C[C@@H]12)[C@@H](OC(C)=O)O[C@H]3OC(C)=O
IC50 (A549 [1]; a549): Not Active

CC1=C2C[C@@]3(C)CC[C@@](O)(C(C)C)[C@@H]3CC[C@]2(C)[C@@H](O)CC1
IC50 (A549 [1]; a549): Not Active
